These are literature values, as cited in patent publication US20080287471A1, “4'-Substituted Carbovir And Abacavir-Derivatives As Well As Related Compounds With Hiv And Hcv Antiviral Activity” (priority 2003, published 2008).

In this data set the test system is HIV. Conditions: after a short course of abacavir monotherapy.

In the case of `Nc1nc(NC2CC2)c2ncn([C@H]3C=C[C@@H](CO)C3)c2n1` [abacavir, Abacavir], the “average reduction in viral load” value was “more than 1.4 log 10 RNA copies/ml”.
